The values that follow come from patent US20260124197A1, “NOVEL HETEROBICYCLIC COMPOUND FOR INHIBITING YAP-TEAD INTERACTION AND PHARMACEUTICAL COMPOSITION COMPRISING SAME” (priority 2022, published 2026).

The test system of this assay is TEAD transcriptional activity. The assay is described as follows: TEAD reporter activity inhibition test (luciferase reporter, MCF7 cell line). It counts as cell-based. Conditions: Homo sapiens; TEAD (GTIIC) firefly luciferase reporter MCF7 cell line, 24 hours, ONE-Glo luminescence. On the procedure:
Experimental Example 1: TEAD Reporter Activity Inhibition Test
The ability of the synthetic compounds to inhibit TEAD target gene transcription was measured. This evaluation method measures the transcriptional activity of TEAD by measuring the luciferase luminescence expressed when TEAD binds to a target gene and activates transcription using the MCF7 cell line (BPS Bioscience, Inc., USA) in which a firefly luciferase reporter gene has been introduced into the specific binding structure of TEAD, GTIIC (5′-ACATTCCA-3′). Cell lines were cultured in MEM medium added with 10% FBS, 1% Penicillin/Streptomycin, 1% non-essential amino acids, 10 μg/ml insulin, and 400 μg/ml Geneticin, and Geneticin was excluded when testing for inhibition of TEAD reporter activity. […] cells/100 μl were dispensed into a white 96-well plate and cultured for 6 hours. 50 μl of the test compound diluted to 3× concentration was mixed into each well. After 24 hours of cell culture, the luciferase signal was measured by luminescence using the ONE-Glo luciferase assay system (Promega, E6120) following the manufacturer's protocol. The 50% inhibition value (IC50) for TEAD transcriptional activity was calculated using GraphPad Prism 9.
If the IC50 value is less than 100 nM, it is indicated as A, if it is at least 100 nM but less than 500 nM, it is indicated as B, and if it is 500 nM or more, it is indicated as C.
On the technique in general: A reporter such as luciferase makes a cellular process visible.
For the molecule `CNS(=O)(=O)c1ccc2c(c1)c(-c1cn(C)cn1)cn2-c1ccc(C(F)(F)F)c(Cl)c1` [Example 27, 1-(3-chloro-4-(trifluoromethyl)phenyl)-N-methyl-3-(1-methyl-1H-imidazol-4-yl)-1H-indole-5-sulfonamide], the IC50 was < 100 nM.
The value for `CNS(=O)(=O)c1ccc2c(c1)c(-c1cccc(F)c1F)cn2-c1ccc(C(F)(F)F)cc1` [Example 25, 3-(2,3-difluorophenyl)-N-methyl-1-(4-(trifluoromethyl)phenyl)-1H-indole-5-sulfonamide] was < 100 nM; that for `CNS(=O)(=O)c1ccc2c(c1)c(-c1c[nH]cn1)cn2-c1ccc(C(F)(F)F)cc1` [Example 29, 3-(1H-imidazol-4-yl)-N-methyl-1-(4-(trifluoromethyl)phenyl)-1H-indole-5-sulfonamide] was 100 to 500 nM; that for `CNS(=O)(=O)c1ccc2c(c1)c(N1CC(F)C1)cn2-c1ccc(C(F)(F)F)cc1` [Example 46, 3-(3-fluoroazetidin-1-yl)-N-methyl-1-(4-(trifluoromethyl)phenyl)-1H-indole-5-sulfonamide] was < 100 nM.
Regarding `CNS(=O)(=O)c1ccc2c(c1)c(-c1cn(C)cn1)cn2-c1ccc(C(F)(F)F)cn1` [Example 12, N-methyl-3-(1-methyl-1H-imidazol-4-yl)-1-(5-(trifluoromethyl)pyridin-2-yl)-1H-indole-5-sulfonamide], the IC50 lay within 100 to 500 nM.
For `CNS(=O)(=O)c1ccc2c(c1)c(-c1cn(C)cn1)cn2-c1ccc(C)cc1` [Example 39, N-methyl-3-(1-methyl-1H-imidazol-4-yl)-1-(p-tolyl)-1H-indole-5-sulfonamide] the value was 100 to 500 nM; for `CNS(=O)(=O)c1ccc2c(c1)c(-c1cn(Cc3ccccc3F)cn1)cn2-c1ccc(C(F)(F)F)cc1` [Example 30, 3-(1-(2-fluorobenzyl)-1H-imidazol-4-yl)-N-methyl-1-(4-(trifluoromethyl)phenyl)-1H-indole-5-sulfonamide], < 100 nM.
Turning to `CNS(=O)(=O)c1ccc2c(c1)c(-c1nccnc1C)cn2-c1ccc(C(F)(F)F)cc1` [Example 1, N-methyl-3-(3-methylpyrazin-2-yl)-1-(4-(trifluoromethyl)phenyl)-1H-indole-5-sulfonamide], the half-maximal inhibitory concentration (IC50) is ≥ 500 nM.
The value for `CNS(=O)(=O)c1ccc2c(c1)c(-c1cn(C)cn1)cn2-c1ccc(Cl)cc1` [Example 14, 1-(4-chlorophenyl)-N-methyl-3-(1-methyl-1H-imidazol-4-yl)-1H-indole-5-sulfonamide] was 100 to 500 nM; that for `CNS(=O)(=O)c1ccc2c(-c3cn(C)cn3)cn(-c3ccc(C(F)(F)F)cc3)c2c1` [Example 33, N-methyl-3-(1-methyl-1H-imidazol-4-yl)-1-(4-(trifluoromethyl)phenyl)-1H-indole-6-sulfonamide] was 100 to 500 nM; that for `CN(C)S(=O)(=O)c1ccc2c(c1)c(-c1cn(C)cn1)cn2-c1ccc(C(F)(F)F)cc1` [Example 19, N,N-dimethyl-3-(1-methyl-1H-imidazol-4-yl)-1-(4-(trifluoromethyl)phenyl)-1H-indole-5-sulfonamide] was ≥ 500 nM.
`CNS(=O)(=O)c1ccc2c(c1)c(-c1ccncc1)cn2-c1ccc(C(F)(F)F)cc1` [Example 15, N-methyl-3-(pyridin-4-yl)-1-(4-(trifluoromethyl)phenyl)-1H-indole-5-sulfonamide] returned an IC50 of 100 to 500 nM.
Consider `CNS(=O)(=O)c1ccc2c(c1)c(-c1cn(C)cn1)cn2-c1cccc(C(F)(F)F)c1` [Example 21, N-methyl-3-(1-methyl-1H-imidazol-4-yl)-1-(3-(trifluoromethyl)phenyl)-1H-indole-5-sulfonamide], for which the IC50 was in the range of 100 to 500 nM.
Molecule `CNS(=O)(=O)c1ccc2c(c1)c(-c1cn(CCS(C)(=O)=O)cn1)cn2-c1ccc(C(F)(F)F)cc1` [Example 48, N-methyl-3-(1-(2-(methylsulfonyl)ethyl)-1H-imidazol-4-yl)-1-(4-(trifluoromethyl)phenyl)-1H-indole-5-sulfonamide] displayed an IC50 of 100 to 500 nM.
`CNS(=O)(=O)c1ccc2c(c1)c(-c1cnco1)cn2-c1ccc(C(F)(F)F)cc1` [Example 41, N-methyl-3-(oxazol-5-yl)-1-(4-(trifluoromethyl)phenyl)-1H-indole-5-sulfonamide] returned an IC50 of 100 to 500 nM.
As for `CNS(=O)(=O)c1ccc2c(c1)c(-c1cn(C)cn1)cn2-c1ccc(C(C)(C)C)cc1` [Example 40, 1-(4-(t-butyl)phenyl)-N-methyl-3-(1-methyl-1H-imidazol-4-yl)-1H-indole-5-sulfonamide], the IC50 is < 100 nM.
The value for `CNS(=O)(=O)c1ccc2c(c1)c(-c1ccccc1)cn2-c1ccc(C(F)(F)F)cc1` [Example 17, N-methyl-3-phenyl-1-(4-(trifluoromethyl)phenyl)-1H-indole-5-sulfonamide] was 100 to 500 nM; that for `CNS(=O)(=O)c1ccc2c(c1)c(-c1cn(C(C)C)cn1)cn2-c1ccc(C(F)(F)F)cc1` [Example 6, 3-(1-isopropyl-1H-imidazol-4-yl)-N-methyl-1-(4-(trifluoromethyl)phenyl)-1H-indole-5-sulfonamide] was ≥ 500 nM; that for `CCNS(=O)(=O)c1ccc2c(c1)c(-c1cn(C)cn1)cn2-c1ccc(C(F)(F)F)cc1` [Example 7, N-ethyl-3-(1-methyl-1H-imidazol-4-yl)-1-(4-(trifluoromethyl)phenyl)-1H-indole-5-sulfonamide] was 100 to 500 nM.
With `CNS(=O)(=O)c1ccc2c(c1)c(-c1cn(C)cn1)cn2-c1ccccc1` [Example 26, N-methyl-3-(1-methyl-1H-imidazol-4-yl)-1-phenyl-1H-indole-5-sulfonamide], the IC50 is ≥ 500 nM.
For `CNS(=O)(=O)c1ccc2c(c1)c(-c1ccc(C)o1)cn2-c1ccccc1` [Example 24, N-methyl-3-(5-methylfuran-2-yl)-1-phenyl-1H-indole-5-sulfonamide] the value was 100 to 500 nM; for `CNS(=O)(=O)c1ccc2c(c1)c(-c1cn3c(n1)CCC3)cn2-c1ccc(C(F)(F)F)cc1` [Example 45, 3-(6,7-dihydro-5H-pyrrolo[1,2-a]imidazol-2-yl)-N-methyl-1-(4-(trifluoromethyl)phenyl)-1H-indole-5-sulfonamide], < 100 nM; for `CNS(=O)(=O)c1ccc2c(c1)c(-c1cn(CC(=O)N(C)C)cn1)cn2-c1ccc(C(F)(F)F)cc1` [Example 47, N,N-dimethyl-2-(4-(5-(N-methylsulfamoyl)-1-(4-(trifluoromethyl)phenyl)-1H-indol-3-yl)-1H-imidazole-1-yl) acetamide], ≥ 500 nM.
The value for `CNS(=O)(=O)c1ccc2c(c1)c(-c1cnn(C)c1)cn2-c1ccc(C(F)(F)F)cc1` [Example 4, N-methyl-3-(1-methyl-1H-pyrazol-4-yl)-1-(4-(trifluoromethyl)phenyl)-1H-indole-5-sulfonamide] was 100 to 500 nM; that for `CNS(=O)(=O)c1ccc2c(c1)c(-c1cn(CC(F)(F)F)cn1)cn2-c1ccc(C(F)(F)F)cc1` [Example 37, N-methyl-3-(1-(2,2,2-trifluoroethyl)-1H-imidazol-4-yl)-1-(4-(trifluoromethyl)phenyl)-1H-indole-5-sulfonamide] was < 100 nM.
The value for `CNS(=O)(=O)c1ccc2c(c1)c(-c1cn(C)cn1)cn2-c1ccc(OC(F)(F)F)cc1` [Example 5, N-methyl-3-(1-methyl-1H-imidazol-4-yl)-1-(4-(trifluoromethoxy)phenyl)-1H-indole-5-sulfonamide] was 100 to 500 nM.
As to `CNS(=O)(=O)c1ccc2c(c1)c(-c1ccn(C)n1)cn2-c1ccc(C(F)(F)F)cc1` [Example 3, N-methyl-3-(1-methyl-1H-pyrazol-3-yl)-1-(4-(trifluoromethyl)phenyl)-1H-indole-5-sulfonamide], the IC50 is 100 to 500 nM.
`CNS(=O)(=O)c1ccc2c(c1)c(-c1cn(C)cn1)cn2-c1ccc(C2CCCCC2)cc1` [Example 18, 1-(4-cyclohexylphenyl)-N-methyl-3-(1-methyl-1H-imidazol-4-yl)-1H-indole-5-sulfonamide]: the concentration for half-maximal inhibition (IC50) was ≥ 500 nM.
For `CNS(=O)(=O)c1ccc2c(c1)c(-c1ccc(C(F)(F)F)o1)cn2-c1ccc(C(F)(F)F)cc1` [Example 34, N-methyl-3-(5-(trifluoromethyl)furan-2-yl)-1-(4-(trifluoromethyl)phenyl)-1H-indole-5-sulfonamide] the value was 100 to 500 nM.
The value for `CNS(=O)(=O)c1ccc2c(c1)c(-c1cn(C3COC3)cn1)cn2-c1ccc(C(F)(F)F)cc1` [Example 35, N-methyl-3-(1-(oxetan-3-yl)-1H-imidazol-4-yl)-1-(4-(trifluoromethyl)phenyl)-1H-indole-5-sulfonamide] was 100 to 500 nM; that for `CNS(=O)(=O)c1ccc2c(c1)c(-c1cn(C)cn1)cn2-c1ccc(C#N)cc1` [Example 22, 1-(4-cyanophenyl)-N-methyl-3-(1-methyl-1H-imidazol-4-yl)-1H-indole-5-sulfonamide] was ≥ 500 nM.
For `CNS(=O)(=O)c1ccc2c(c1)c(-c1ccc(Cl)o1)cn2-c1ccc(C(F)(F)F)cc1` [Example 36, 3-(5-chlorofuran-2-yl)-N-methyl-1-(4-(trifluoromethyl)phenyl)-1H-indole-5-sulfonamide] the value was 100 to 500 nM.

One may read the IC50 as the concentration at which inhibition is half-maximal. Low readings indicate inhibition by little substance, high ones a need for much substance.
